# In US20150105252A1, “SUBSTITUTED PYRAZOLES AS HERBICIDES” (E I DU PONT DE NEMOURS AND COMPANY, priority 2013, published 2015):
# Tests used:
# Assay in all cases: Test C postemergence
# kochia = format: in vivo, Kochia scoparia; conditions: for Plant response rating (scale of 0 to 100 where 0 is no effect and 100 is complete control), Kochia: Postemergence, 31 g ai/ha, visually evaluated after 13 to 15 days; for Kochia plant response rating / Plant response rating, Kochia: postemergence; for Kochia plant response rating: 62 g ai/ha, scale 0 to 100
# Method in brief: (§1)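 Scores of 0 (no effect) to 100 (complete control) were assigned by eye after 13–15 days, comparing treated pots with controls. Soil-applied (preemergence) treatments went onto seeds in loam and sand; foliar (postemergence) treatments onto 1- to 4-leaf plants in peat medium.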
# oat, wild = format: in vivo, Avena fatua; conditions: for Plant response rating (scale of 0 to 100 where 0 is no effect and 100 is complete control), Oat, Wild: Postemergence, 31 g ai/ha, visually evaluated after 13 to 15 days; for Oat, Wild plant response rating / Plant response rating, Oat, Wild: postemergence; for Oat, Wild plant response rating: 62 g ai/ha, scale 0 to 100
# Method in brief: as §1
# pigweed = format: in vivo, Amaranthus retroflexus; conditions: postemergence; for Pigweed plant response rating: 62 g ai/ha, scale 0 to 100
# Method in brief: as §1
# ragweed = format: in vivo, Ambrosia elation; conditions: postemergence
# Method in brief: as §1
# waterhemp = format: in vivo, Amaranthus rudis; conditions: postemergence, 250 g ai/ha; scale 0 to 100 (0 no effect, 100 complete control)
# Method in brief: as §1
# barnyardgrass = format: in vivo, Echinochloa crus-galli; conditions: for Plant response rating (scale of 0 to 100 where 0 is no effect and 100 is complete control), Barnyardgrass: Postemergence, 31 g ai/ha, visually evaluated after 13 to 15 days; for Barnyardgrass plant response rating / Plant response rating, Barnyardgrass: postemergence; for Barnyardgrass plant response rating: 62 g ai/ha, scale 0 to 100
# Method in brief: as §1
# wheat = format: in vivo, Triticum aestivum; conditions: postemergence; for Plant response rating, Wheat: 250 g ai/ha, scale 0 to 100 (0 no effect, 100 complete control)
# Method in brief: as §1
# foxtail, giant = format: in vivo, Setaria faberii; conditions: for Plant response rating (scale of 0 to 100 where 0 is no effect and 100 is complete control), Foxtail, Giant: Postemergence, 31 g ai/ha, visually evaluated after 13 to 15 days; for Foxtail, Giant plant response rating / Plant response rating, Foxtail, Giant: postemergence; for Foxtail, Giant plant response rating: 62 g ai/ha, scale 0 to 100
# Method in brief: as §1
# blackgrass = format: in vivo, Alopecurus myosuroides; conditions: for Plant response rating (scale of 0 to 100 where 0 is no effect and 100 is complete control), Blackgrass: Postemergence, 31 g ai/ha, visually evaluated after 13 to 15 days; for Blackgrass plant response rating / Plant response rating, Blackgrass: postemergence; for Blackgrass plant response rating: 62 g ai/ha, scale 0 to 100
# Method in brief: as §1
# morningglory = format: in vivo, Ipomoea coccinea; conditions: for Plant response rating (scale of 0 to 100 where 0 is no effect and 100 is complete control), Morningglory: Postemergence, 31 g ai/ha, visually evaluated after 13 to 15 days; for Morningglory plant response rating / Plant response rating, Morningglory: postemergence; for Morningglory plant response rating: 62 g ai/ha, scale 0 to 100
# Method in brief: as §1
# nutsedge, yellow = format: in vivo, Cyperus esculentus; conditions: for Plant response rating (scale of 0 to 100 where 0 is no effect and 100 is complete control), Nutsedge, Yellow: Postemergence, 31 g ai/ha, visually evaluated after 13 to 15 days; for Nutsedge, Yellow plant response rating / Plant response rating, Nutsedge, Yellow: postemergence; for Nutsedge, Yellow plant response rating: 62 g ai/ha, scale 0 to 100
# Method in brief: as §1
# johnsongrass = format: in vivo, Sorghum halepense; conditions: for Plant response rating (scale of 0 to 100 where 0 is no effect and 100 is complete control), Johnsongrass: Postemergence, 31 g ai/ha, visually evaluated after 13 to 15 days; for Johnsongrass plant response rating / Plant response rating, Johnsongrass: postemergence; for Johnsongrass plant response rating: 62 g ai/ha, scale 0 to 100
# Method in brief: as §1
# ryegrass, Italian = format: in vivo, Lolium multiflorum; conditions: postemergence
# Method in brief: as §1
# oilseed rape = format: in vivo, Brassica napus; conditions: postemergence; for Oilseed Rape plant response rating: 62 g ai/ha, scale 0 to 100
# Method in brief: as §1
# chickweed = format: in vivo, Stellaria media; conditions: for Plant response rating (scale of 0 to 100 where 0 is no effect and 100 is complete control), Chickweed: Postemergence, 31 g ai/ha, visually evaluated after 13 to 15 days; for Chickweed plant response rating / Plant response rating, Chickweed: postemergence; for Chickweed plant response rating: 62 g ai/ha, scale 0 to 100
# Method in brief: as §1
# soybean = format: in vivo, Glycine max; conditions: postemergence; for Plant response rating, Soybean: 250 g ai/ha, scale 0 to 100 (0 no effect, 100 complete control); for Soybean plant response rating: 125 g ai/ha, scale 0 to 100, 0 no effect, 100 complete control
# Method in brief: as §1
# lambsquarters = format: in vivo, Chenopodium album; conditions: for Plant response rating (scale of 0 to 100 where 0 is no effect and 100 is complete control), Lambsquarters: Postemergence, 31 g ai/ha, visually evaluated after 13 to 15 days; for Lambsquarters plant response rating / Plant response rating, Lambsquarters: postemergence; for Lambsquarters plant response rating: 62 g ai/ha, scale 0 to 100
# Method in brief: as §1
# [1] = 250 g ai/ha, scale 0 to 100 (0 no effect, 100 complete control)
# [2] = 125 g ai/ha, scale 0 to 100, 0 no effect, 100 complete control
smiles,measurement,setting,value
CCCNC(=O)c1cc(CCC)n(Cc2cc(C(F)(F)F)nn2C)n1 [Compound 198],"Plant response rating (scale of 0 to 100 where 0 is no effect and 100 is complete control), Kochia",kochia,80
same,Kochia plant response rating,kochia,80
same,"Plant response rating, Kochia",kochia; [1],90
same,"Plant response rating, Kochia",kochia; [2],85
same,"Plant response rating (scale of 0 to 100 where 0 is no effect and 100 is complete control), Oat, Wild","oat, wild",10
same,"Oat, Wild plant response rating","oat, wild",10
same,"Plant response rating, Oat, Wild","oat, wild; [1]",45
same,"Plant response rating, Oat, Wild","oat, wild; [2]",20
same,Pigweed plant response rating,pigweed,60
same,"Plant response rating, Pigweed",pigweed; [1],90
same,"Plant response rating, Pigweed",pigweed; [2],80
same,"Plant response rating, Ragweed",ragweed; [1],80
same,"Plant response rating, Ragweed",ragweed; [2],55
same,"Plant response rating, Waterhemp",waterhemp,90
same,"Plant response rating (scale of 0 to 100 where 0 is no effect and 100 is complete control), Barnyardgrass",barnyardgrass,5
same,Barnyardgrass plant response rating,barnyardgrass,15
same,"Plant response rating, Barnyardgrass",barnyardgrass; [1],35
same,"Plant response rating, Barnyardgrass",barnyardgrass; [2],15
same,"Plant response rating, Wheat",wheat,10
same,Wheat plant response rating,wheat; scale 0 to 100,5
same,"Plant response rating (scale of 0 to 100 where 0 is no effect and 100 is complete control), Foxtail, Giant","foxtail, giant",10
same,"Foxtail, Giant plant response rating","foxtail, giant",10
same,"Plant response rating, Foxtail, Giant","foxtail, giant; [1]",55
same,"Plant response rating, Foxtail, Giant","foxtail, giant; [2]",15
same,"Plant response rating (scale of 0 to 100 where 0 is no effect and 100 is complete control), Blackgrass",blackgrass,0
same,Blackgrass plant response rating,blackgrass,20
same,"Plant response rating, Blackgrass",blackgrass; [1],30
same,"Plant response rating, Blackgrass",blackgrass; [2],40
same,"Plant response rating (scale of 0 to 100 where 0 is no effect and 100 is complete control), Morningglory",morningglory,95
same,Morningglory plant response rating,morningglory,60
same,"Plant response rating, Morningglory",morningglory; [1],98
same,"Plant response rating, Morningglory",morningglory; [2],98
same,"Plant response rating (scale of 0 to 100 where 0 is no effect and 100 is complete control), Nutsedge, Yellow","nutsedge, yellow",5
same,"Nutsedge, Yellow plant response rating","nutsedge, yellow",10
same,"Plant response rating, Nutsedge, Yellow","nutsedge, yellow; [1]",5
same,"Plant response rating, Nutsedge, Yellow","nutsedge, yellow; [2]",5
same,"Plant response rating (scale of 0 to 100 where 0 is no effect and 100 is complete control), Johnsongrass",johnsongrass,5
same,Johnsongrass plant response rating,johnsongrass,5
same,"Plant response rating, Johnsongrass",johnsongrass; [1],10
same,"Plant response rating, Johnsongrass",johnsongrass; [2],5
same,"Plant response rating, Ryegrass, Italian","ryegrass, Italian; [1]",5
same,"Plant response rating, Ryegrass, Italian","ryegrass, Italian; [2]",5
same,Oilseed Rape plant response rating,oilseed rape,50
same,"Plant response rating, Oilseed Rape",oilseed rape; [1],60
same,"Plant response rating, Oilseed Rape",oilseed rape; [2],70
same,"Plant response rating (scale of 0 to 100 where 0 is no effect and 100 is complete control), Chickweed",chickweed,70
same,Chickweed plant response rating,chickweed,70
same,"Plant response rating, Chickweed",chickweed; [1],80
same,"Plant response rating, Chickweed",chickweed; [2],80
same,"Plant response rating, Soybean",soybean,95
same,Soybean plant response rating,soybean,95
same,"Plant response rating (scale of 0 to 100 where 0 is no effect and 100 is complete control), Lambsquarters",lambsquarters,20
same,Lambsquarters plant response rating,lambsquarters,50
same,"Plant response rating, Lambsquarters",lambsquarters; [1],85
same,"Plant response rating, Lambsquarters",lambsquarters; [2],75
CCc1cc(C(=O)NCC2CC2)nn1Cc1ccnc(C(F)(F)F)c1 [Compound 199],"Plant response rating (scale of 0 to 100 where 0 is no effect and 100 is complete control), Kochia",kochia,80
same,Kochia plant response rating,kochia,85
same,"Plant response rating, Kochia",kochia; [1],95
same,"Plant response rating, Kochia",kochia; [2],90
same,"Plant response rating (scale of 0 to 100 where 0 is no effect and 100 is complete control), Oat, Wild","oat, wild",5
same,"Oat, Wild plant response rating","oat, wild",10
same,"Plant response rating, Oat, Wild","oat, wild; [1]",80
same,"Plant response rating, Oat, Wild","oat, wild; [2]",30
same,Pigweed plant response rating,pigweed,60
same,"Plant response rating, Pigweed",pigweed; [1],90
same,"Plant response rating, Pigweed",pigweed; [2],75
same,"Plant response rating, Ragweed",ragweed; [1],75
same,"Plant response rating, Ragweed",ragweed; [2],20
same,"Plant response rating, Waterhemp",waterhemp,75
same,"Plant response rating (scale of 0 to 100 where 0 is no effect and 100 is complete control), Barnyardgrass",barnyardgrass,10
same,Barnyardgrass plant response rating,barnyardgrass,10
same,"Plant response rating, Barnyardgrass",barnyardgrass; [1],45
same,"Plant response rating, Barnyardgrass",barnyardgrass; [2],30
same,"Plant response rating, Wheat",wheat,5
same,"Plant response rating (scale of 0 to 100 where 0 is no effect and 100 is complete control), Foxtail, Giant","foxtail, giant",10
same,"Foxtail, Giant plant response rating","foxtail, giant",10
same,"Plant response rating, Foxtail, Giant","foxtail, giant; [1]",50
same,"Plant response rating, Foxtail, Giant","foxtail, giant; [2]",50
same,"Plant response rating (scale of 0 to 100 where 0 is no effect and 100 is complete control), Blackgrass",blackgrass,0
same,Blackgrass plant response rating,blackgrass,10
same,"Plant response rating, Blackgrass",blackgrass; [1],30
same,"Plant response rating, Blackgrass",blackgrass; [2],10
same,"Plant response rating (scale of 0 to 100 where 0 is no effect and 100 is complete control), Morningglory",morningglory,30
same,Morningglory plant response rating,morningglory,50
same,"Plant response rating, Morningglory",morningglory; [1],85
same,"Plant response rating, Morningglory",morningglory; [2],60
same,"Plant response rating (scale of 0 to 100 where 0 is no effect and 100 is complete control), Nutsedge, Yellow","nutsedge, yellow",5
same,"Nutsedge, Yellow plant response rating","nutsedge, yellow",10
same,"Plant response rating, Nutsedge, Yellow","nutsedge, yellow; [1]",20
same,"Plant response rating, Nutsedge, Yellow","nutsedge, yellow; [2]",45
same,"Plant response rating (scale of 0 to 100 where 0 is no effect and 100 is complete control), Johnsongrass",johnsongrass,5
same,Johnsongrass plant response rating,johnsongrass,5
same,"Plant response rating, Johnsongrass",johnsongrass; [1],55
same,"Plant response rating, Johnsongrass",johnsongrass; [2],40
same,"Plant response rating, Ryegrass, Italian","ryegrass, Italian; [1]",10
same,"Plant response rating, Ryegrass, Italian","ryegrass, Italian; [2]",10
same,Oilseed Rape plant response rating,oilseed rape,45
same,"Plant response rating, Oilseed Rape",oilseed rape; [1],65
same,"Plant response rating, Oilseed Rape",oilseed rape; [2],55
same,"Plant response rating (scale of 0 to 100 where 0 is no effect and 100 is complete control), Chickweed",chickweed,70
same,Chickweed plant response rating,chickweed,60
same,"Plant response rating, Chickweed",chickweed; [1],80
same,"Plant response rating, Chickweed",chickweed; [2],80
same,"Plant response rating, Soybean",soybean,95
same,Soybean plant response rating,soybean,75
same,"Plant response rating (scale of 0 to 100 where 0 is no effect and 100 is complete control), Lambsquarters",lambsquarters,25
same,Lambsquarters plant response rating,lambsquarters,85
same,"Plant response rating, Lambsquarters",lambsquarters; [1],95
same,"Plant response rating, Lambsquarters",lambsquarters; [2],70
